Patent publication US6914045B2, “Glycopeptide antibiotics” (Wyeth Holdings Corporation, priority 2001, dated 2005)
≈ marks a conversion by molar mass, not a printed value.

Key:
Assay in all cases: in vitro antibacterial evaluation, MIC by broth dilution
Assay type in all cases: cell-based
Escherichia coli = conditions: 18 hours at 35° C.
Summary of the method: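 Broth dilution MIC per NCCLS M7-A2 in Mueller-Hinton II medium, inoculum 5×10^5 CFU/mL, antibiotic range 64-0.06 μg/mL. MIC taken as lowest concentration inhibiting growth.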

Enterococcus sp. = test system: Enterococcus sp.
Method: (§1) Methods for in vitro Antibacterial Evaluation (Table 1)
(§2) The minimum inhibitory concentration (MIC), the lowest concentration of the antibiotic which inhibits growth of the test organism, is determined by the broth dilution method using Muller-Hinton II […] (Baltimore Biological Laboratories) following the recommendations of the National Committee for Clinical Laboratory Standards [Methods for dilution antimicrobial susceptibility tests for bacteria that grow aerobically, approved standard M7-A2, National Committee for Clinical Laboratory Standards, Villanova, Pa.].
(§3) An inoculum level of 5×10^5 CFU/mL, and a range of antibiotic concentrations (64-0.06 μg/mL) is used. […] The test organisms include a spectrum of Gram-positive bacteria comprised of Staphylococcus sp., Streptococcus sp. and Enterococcus sp. These organisms include recent clinical isolates that are resistant to methicillin, penicillin and/or vancomycin.

Streptococcus sp. = test system: Streptococcus sp.
Method: as §1, §2, §3

Staphylococcus sp. = conditions: broth dilution, 18 hours at 35° C.; for MIC Staphylococcus aureus (ATCC 29213): strain ATCC 29213; for MIC Staphylococcus aureus (GC 1131): strain GC 1131; for MIC Staphylococcus aureus (GC 3051): strain GC 3051; for MIC Staphylococcus aureus (GC 3053): strain GC 3053; for MIC Staphylococcus aureus (GC 4541): strain GC 4541; for MIC Staphylococcus aureus (GC 4542): strain GC 4542; for MIC Staphylococcus aureus (GC 4544): strain GC 4544; for MIC Staphylococcus aureus (GC 4545): strain GC 4545
Method: as §1, §2, §3

[1] = broth dilution, 18 hours at 35° C.

CC(c1ccccc1)C1NC(=O)CNC(=O)C(CO)NC(=O)C(C(O)C2CNC(=N)N2C2OC(CO)C(O)C(O)C2O)NC(=O)C(C(O)C2CNC(=N)N2)NC(=O)C(Cc2ccc3oc(SCC(=O)c4ccc(Cl)cc4)nc3c2)NC1=O (stereo not drawn) [Example 49]
MIC Escherichia coli (ATCC 25922) (Escherichia coli; strain ATCC 25922, broth dilution): 16 µg/mL (≈ 13.6 µM)
MIC Escherichia coli (GC 4559) (Escherichia coli; strain GC 4559, broth dilution): 8 µg/mL (≈ 6.78 µM)
MIC Escherichia coli (GC 4560) (Escherichia coli; strain GC 4560, broth dilution): 4 µg/mL (≈ 3.39 µM)
MIC Enterococcus faecalis (ATCC 29212) (Enterococcus sp.; strain ATCC 29212; broth dilution, 18 hours at 35° C.): 16 µg/mL (≈ 13.6 µM)
MIC Enterococcus faecalis (GC 2242) (Enterococcus sp.; strain GC 2242; broth dilution, 18 hours at 35° C.): 16 µg/mL (≈ 13.6 µM)
MIC Enterococcus faecium (GC 2243) (Enterococcus sp.; strain GC 2243; broth dilution, 18 hours at 35° C.): 8 µg/mL (≈ 6.78 µM)
MIC Enterococcus faecalis (GC 2691) (Enterococcus sp.; strain GC 2691; broth dilution, 18 hours at 35° C.): 16 µg/mL (≈ 13.6 µM)
MIC Enterococcus faecalis (GC 3059) (Enterococcus sp.; strain GC 3059; broth dilution, 18 hours at 35° C.): 32 µg/mL (≈ 27.1 µM)
MIC Enterococcus faecalis (GC 4552) (Enterococcus sp.; strain GC 4552; broth dilution, 18 hours at 35° C.): 2 µg/mL (≈ 1.69 µM)
MIC Enterococcus faecalis (GC 4553) (Enterococcus sp.; strain GC 4553; broth dilution, 18 hours at 35° C.): 4 µg/mL (≈ 3.39 µM)
MIC Enterococcus faecalis (GC 4554) (Enterococcus sp.; strain GC 4554; broth dilution, 18 hours at 35° C.): 16 µg/mL (≈ 13.6 µM)
MIC Enterococcus faecium (GC 4556) (Enterococcus sp.; strain GC 4556; broth dilution, 18 hours at 35° C.): 8 µg/mL (≈ 6.78 µM)
MIC Enterococcus faecium (GC 4557) (Enterococcus sp.; strain GC 4557; broth dilution, 18 hours at 35° C.): 2 µg/mL (≈ 1.69 µM)
MIC Enterococcus avium (GC 4558) (Enterococcus sp.; strain GC 4558; broth dilution, 18 hours at 35° C.): 4 µg/mL (≈ 3.39 µM)
MIC Enterococcus faecalis (GC 6189) (Enterococcus sp.; strain GC 6189; broth dilution, 18 hours at 35° C.): 16 µg/mL (≈ 13.6 µM)
MIC Streptococcus pneumoniae (ATCC 6301) (Streptococcus sp.; strain ATCC 6301; broth dilution, 18 hours at 35° C.): 8 µg/mL (≈ 6.78 µM)
MIC Streptococcus pneumoniae (GC 1894) (Streptococcus sp.; strain GC 1894; broth dilution, 18 hours at 35° C.): 8 µg/mL (≈ 6.78 µM)
MIC Streptococcus pyogenes (GC 4563) (Streptococcus sp.; strain GC 4563; broth dilution, 18 hours at 35° C.): 2 µg/mL (≈ 1.69 µM)
MIC Streptococcus agalactiae (GC 4564) (Streptococcus sp.; strain GC 4564; broth dilution, 18 hours at 35° C.): 4 µg/mL (≈ 3.39 µM)
MIC Streptococcus pneumoniae (GC 4565) (Streptococcus sp.; strain GC 4565; broth dilution, 18 hours at 35° C.): 8 µg/mL (≈ 6.78 µM)
MIC Staphylococcus aureus (ATCC 29213) (Staphylococcus sp.): 8 µg/mL (≈ 6.78 µM)
MIC Staphylococcus aureus (GC 1131) (Staphylococcus sp.): 4 µg/mL (≈ 3.39 µM)
MIC Staphylococcus aureus (GC 3051) (Staphylococcus sp.): 4 µg/mL (≈ 3.39 µM)
MIC Staphylococcus aureus (GC 3053) (Staphylococcus sp.): 4 µg/mL (≈ 3.39 µM)
MIC Staphylococcus aureus (GC 4541) (Staphylococcus sp.): 4 µg/mL (≈ 3.39 µM)
MIC Staphylococcus aureus (GC 4542) (Staphylococcus sp.): 4 µg/mL (≈ 3.39 µM)
MIC Staphylococcus aureus-SMITH (GC 4543) (Staphylococcus sp.; strain GC 4543): 2 µg/mL (≈ 1.69 µM)
MIC Staphylococcus aureus (GC 4544) (Staphylococcus sp.): 4 µg/mL (≈ 3.39 µM)
MIC Staphylococcus aureus (GC 4545) (Staphylococcus sp.): 2 µg/mL (≈ 1.69 µM)
MIC Staphylococcus haemolyticus (GC 4546) (Staphylococcus sp.; strain GC 4546): 1 µg/mL (≈ 0.847 µM)
MIC Coagulase Negative Staphylococcus (GC 4547) (Staphylococcus sp.; strain GC 4547): 4 µg/mL (≈ 3.39 µM)
MIC Coagulase Negative Staphylococcus (GC 4548) (Staphylococcus sp.; strain GC 4548): 2 µg/mL (≈ 1.69 µM)
MIC Coagulase Negative Staphylococcus (GC 4549) (Staphylococcus sp.; strain GC 4549): 1 µg/mL (≈ 0.847 µM)
MIC Coagulase Negative Staphylococcus (GC 4551) (Staphylococcus sp.; strain GC 4551): 4 µg/mL (≈ 3.39 µM)

Tri-N-[(phenylmethoxy)carbonyl]-cyclo[glycl-β-methylphenylalanyltyrosyl-3-(2-iminoimidazolidin-4-yl)seryl-3-(3-hexopyranosyl-2-iminoimidazolidin-4-yl)serylseryl] [Example 89]
MIC Escherichia coli (ATCC 25922) (Escherichia coli): >64 µg/mL
MIC Escherichia coli (GC 4559) (Escherichia coli): >64 µg/mL
MIC Escherichia coli (GC 4560) (Escherichia coli): 32 µg/mL
MIC Enterococcus avium (GC 4558) (Enterococcus sp.; Enterococcus avium (GC 4558); broth dilution, 18 hours at 35° C.): 32 µg/mL
MIC Enterococcus faecalis (ATCC 29212) (Enterococcus sp.; Enterococcus faecalis (ATCC 29212); broth dilution, 18 hours at 35° C.): 64 µg/mL
MIC Enterococcus faecalis (GC 4552) (Enterococcus sp.; Enterococcus faecalis (GC 4552); broth dilution, 18 hours at 35° C.): 64 µg/mL
MIC Enterococcus faecalis (GC 4553) (Enterococcus sp.; Enterococcus faecalis (GC 4553); broth dilution, 18 hours at 35° C.): 64 µg/mL
MIC Enterococcus faecalis (GC 4554) (Enterococcus sp.; Enterococcus faecalis (GC 4554); broth dilution, 18 hours at 35° C.): 64 µg/mL
MIC Enterococcus faecalis (GC 6189) (Enterococcus sp.; Enterococcus faecalis (GC 6189); broth dilution, 18 hours at 35° C.): 64 µg/mL
MIC Enterococcus faecium (GC 2243) (Enterococcus sp.; Enterococcus faecium (GC 2243); broth dilution, 18 hours at 35° C.): 64 µg/mL
MIC Enterococcus faecium (GC 4556) (Enterococcus sp.; Enterococcus faecium (GC 4556); broth dilution, 18 hours at 35° C.): 64 µg/mL
MIC Enterococcus faecium (GC 4557) (Enterococcus sp.; Enterococcus faecium (GC 4557); broth dilution, 18 hours at 35° C.): 32 µg/mL
MIC Enterococcus avium (GC 4558) (Enterococcus sp.; [1]): 32 µg/mL
MIC Enterococcus faecalis (ATCC 29212) (Enterococcus sp.; [1]): 64 µg/mL
MIC Enterococcus faecalis (GC 2242) (Enterococcus sp.; [1]): 64 µg/mL
MIC Enterococcus faecalis (GC 2691) (Enterococcus sp.; [1]): 64 µg/mL
MIC Enterococcus faecalis (GC 3059) (Enterococcus sp.; [1]): 64 µg/mL
MIC Enterococcus faecalis (GC 4552) (Enterococcus sp.; [1]): 64 µg/mL
MIC Enterococcus faecalis (GC 4553) (Enterococcus sp.; [1]): 64 µg/mL
MIC Enterococcus faecalis (GC 4554) (Enterococcus sp.; [1]): 64 µg/mL
MIC Enterococcus faecalis (GC 6189) (Enterococcus sp.; [1]): 64 µg/mL
MIC Enterococcus faecium (GC 2243) (Enterococcus sp.; [1]): 64 µg/mL
MIC Enterococcus faecium (GC 4556) (Enterococcus sp.; [1]): 64 µg/mL
MIC Enterococcus faecium (GC 4557) (Enterococcus sp.; [1]): 32 µg/mL
MIC Enterococcus faecalis (GC 2242) (Enterococcus sp.; broth dilution, 18 hours at 35° C.; strain GC 2242): 64 µg/mL
MIC Enterococcus faecalis (GC 2691) (Enterococcus sp.; broth dilution, 18 hours at 35° C.; strain GC 2691): 64 µg/mL
MIC Enterococcus faecalis (GC 3059) (Enterococcus sp.; broth dilution, 18 hours at 35° C.; strain GC 3059): 64 µg/mL
MIC Streptococcus agalactiae (GC 4564) (Streptococcus sp.; [1]): 32 µg/mL
MIC Streptococcus pneumoniae (ATCC 6301) (Streptococcus sp.; [1]): 16 µg/mL
MIC Streptococcus pneumoniae (GC 1894) (Streptococcus sp.; [1]): 4 µg/mL
MIC Streptococcus pneumoniae (GC 4565) (Streptococcus sp.; [1]): 8 µg/mL
MIC Streptococcus pyogenes (GC 4563) (Streptococcus sp.; [1]): 32 µg/mL
MIC Streptococcus pneumoniae (ATCC 6301) (Streptococcus sp.; broth dilution, 18 hours at 35° C.; strain ATCC 6301): 16 µg/mL
MIC Streptococcus pneumoniae (GC 1894) (Streptococcus sp.; broth dilution, 18 hours at 35° C.; strain GC 1894): 4 µg/mL
MIC Streptococcus pyogenes (GC 4563) (Streptococcus sp.; broth dilution, 18 hours at 35° C.; strain GC 4563): 32 µg/mL
MIC Streptococcus agalactiae (GC 4564) (Streptococcus sp.; broth dilution, 18 hours at 35° C.; strain GC 4564): 32 µg/mL
MIC Streptococcus pneumoniae (GC 4565) (Streptococcus sp.; broth dilution, 18 hours at 35° C.; strain GC 4565): 8 µg/mL
MIC Coagulase Negative Staphylococcus (GC 4547) (Staphylococcus sp.): 32 µg/mL
MIC Coagulase Negative Staphylococcus (GC 4548) (Staphylococcus sp.): 64 µg/mL
MIC Coagulase Negative Staphylococcus (GC 4549) (Staphylococcus sp.): 64 µg/mL
MIC Coagulase Negative Staphylococcus (GC 4551) (Staphylococcus sp.): 64 µg/mL
MIC Coagulase Negative Staphylococcus (GC 6257) (Staphylococcus sp.): 32 µg/mL
MIC Staphylococcus aureus-SMITH (GC 4543) (Staphylococcus sp.): 64 µg/mL
MIC Staphylococcus haemolyticus (GC 4546) (Staphylococcus sp.): 32 µg/mL
MIC Staphylococcus aureus (ATCC 29213) (Staphylococcus sp.): 64 µg/mL
MIC Staphylococcus aureus (GC 1131) (Staphylococcus sp.): 64 µg/mL
MIC Staphylococcus aureus (GC 3051) (Staphylococcus sp.): 64 µg/mL
MIC Staphylococcus aureus (GC 3053) (Staphylococcus sp.): 64 µg/mL
MIC Staphylococcus aureus (GC 4541) (Staphylococcus sp.): 64 µg/mL
MIC Staphylococcus aureus (GC 4542) (Staphylococcus sp.): 64 µg/mL
MIC Staphylococcus aureus-SMITH (GC 4543) (Staphylococcus sp.; strain GC 4543): 64 µg/mL
MIC Staphylococcus aureus (GC 4544) (Staphylococcus sp.): 64 µg/mL
MIC Staphylococcus aureus (GC 4545) (Staphylococcus sp.): 64 µg/mL
MIC Staphylococcus haemolyticus (GC 4546) (Staphylococcus sp.; strain GC 4546): 32 µg/mL
MIC Coagulase Negative Staphylococcus (GC 4547) (Staphylococcus sp.; strain GC 4547): 32 µg/mL
MIC Coagulase Negative Staphylococcus (GC 4548) (Staphylococcus sp.; strain GC 4548): 64 µg/mL
MIC Coagulase Negative Staphylococcus (GC 4549) (Staphylococcus sp.; strain GC 4549): 64 µg/mL
MIC Coagulase Negative Staphylococcus (GC 4551) (Staphylococcus sp.; strain GC 4551): 64 µg/mL
MIC Coagulase Negative Staphylococcus (GC 6257) (Staphylococcus sp.; strain GC 6257): 32 µg/mL
